The values that follow come from ChEMBL document CHEMBL1136334, “Synthesis and biological evaluation of 4-[(3-methyl-3H-imidazol-4-yl)-(2-phenylethynyl-benzyloxy)-methyl]-benzonitrile as novel farnesyltransferase inhibitor” (Bioorg Med Chem Lett, 2003).

Each structure is given as a SMILES string.

What is called IC50 is the midpoint of a concentration-inhibition curve. In general, EC50 refers to the concentration that produces a half-maximal response. A higher EC50 goes with weaker potency.

The first test addresses Geranylgeranyl transferase type I (Homo sapiens, UniProt P49354+P53609). In words: In vitro inhibition of the human Geranylgeranyl transferase-catalyzed incorporation of [3H]GGPP into biotinylated peptide corresponding to the C-terminal of human K-Ras. Format: protein-complex assay.
Settings: not given
For `Cn1cncc1C(OCc1ccc(C#N)cc1C#Cc1ccc(-c2ccccc2)cc1)c1ccc(C#N)cc1` (centres undefined), the IC50 was greater than 10 µM.
Still for that read-out and setting: the value for `Cn1cncc1C(OCc1ccc(C#N)cc1CCC(C)(C)C)c1ccc(C#N)cc1` (centres undefined) was 0.31 µM; that for `Cn1cncc1C(OCc1ccc(C#N)cc1/C=C/c1ccc([N+](=O)[O-])cc1)c1ccc(C#N)cc1` (centres undefined) was 0.11 µM.
Same read-out and setting: the value for `Cn1cncc1C(OCc1ccc(C#N)cc1C#Cc1ccc([N+](=O)[O-])cc1)c1ccc(C#N)cc1` (centres undefined) was 0.15 µM.
As for `Cn1cncc1C(OCc1ccc(C#N)cc1C#CCCc1ccccc1)c1ccc(C#N)cc1` (centres undefined), the midpoint of inhibition, the IC50, lay at 0.54 µM.
`Cn1cncc1C(OCc1ccc(C#N)cc1C#Cc1ccc(C#N)cc1)c1ccc(C#N)cc1` (centres undefined) gave an IC50 of 0.124 µM.
The compound `Cn1cncc1C(OCc1ccc(C#N)cc1C#CC1(O)CCCCC1)c1ccc(C#N)cc1` (centres undefined) returned an IC50 of 0.845 µM.
On the same count and under the same terms, the value for `Cn1cncc1C(OCc1ccc(C#N)cc1C#CC(C)(C)C)c1ccc(C#N)cc1` (centres undefined) was 0.49 µM; that for `Cn1cncc1C(OCc1ccc(C#N)cc1C#CCCCCO)c1ccc(C#N)cc1` (centres undefined) was 1.6 µM.
Same read-out and setting: the value for `CCC/C=C/C=C/c1cc(C#N)ccc1COC(c1ccc(C#N)cc1)c1cncn1C` (centres undefined) was 0.22 µM; that for `Cn1cncc1C(OCc1ccc(C#N)cc1C#Cc1ccccc1)c1ccc(C#N)cc1` (centres undefined) was 1.8 µM; that for `Cn1cncc1C(OCc1ccc(C#N)cc1C#Cc1cccc(O)c1)c1ccc(C#N)cc1` (centres undefined) was 1.3 µM.
Still for that read-out and setting: the value for `Cn1cncc1C(OCc1ccc(C#N)cc1/C=C/c1ccccn1)c1ccc(C#N)cc1` (centres undefined) was 1.8 µM.
As to `CCCCCCC#Cc1cc(C#N)ccc1COC(c1ccc(C#N)cc1)c1cncn1C` (centres undefined), inhibition was half-maximal at 0.16 µM (IC50).
Compound `Cn1cncc1C(OCc1ccc(C#N)cc1C#Cc1ccccn1)c1ccc(C#N)cc1` (centres undefined) registered an IC50 of 16 µM.
Same read-out and setting: then `Cn1cncc1C(OCc1ccc(C#N)cc1-c1ccc(C#N)cc1)c1ccc(C#N)cc1` (centres undefined), with 9 µM; and `Cn1cncc1C(OCc1ccc(C#N)cc1-c1ccc(-c2ccccc2)cc1)c1ccc(C#N)cc1` (centres undefined), with 0.15 µM.

The subject of the next test is NIH3T3. Put plainly: In vitro reduction of farnesylation in NIH-3T3H-ras cell line. The following applies: Mus musculus. Type of test: functional, cell-based.
`Cn1cncc1C(OCc1ccc(C#N)cc1C#Cc1ccc(-c2ccccc2)cc1)c1ccc(C#N)cc1` (centres undefined) registered an EC50 greater than 0.0001 µM.
On the same count and under the same terms, the value for `Cn1cncc1C(OCc1ccc(C#N)cc1CCC(C)(C)C)c1ccc(C#N)cc1` (centres undefined) was 0.00054 µM.
`Cn1cncc1C(OCc1ccc(C#N)cc1/C=C/c1ccc([N+](=O)[O-])cc1)c1ccc(C#N)cc1` (centres undefined) yielded an EC50 of 0.00224 µM.
`Cn1cncc1C(OCc1ccc(C#N)cc1-c1ccccc1)c1ccc(C#N)cc1` (centres undefined) came in with an EC50 of 0.14 µM.
On the same count and under the same terms, then `Cn1cncc1C(OCc1ccc(C#N)cc1C#Cc1ccc([N+](=O)[O-])cc1)c1ccc(C#N)cc1` (centres undefined), with 0.036 µM; and `Cn1cncc1C(OCc1ccc(C#N)cc1C#CCCc1ccccc1)c1ccc(C#N)cc1` (centres undefined), with 0.13 µM.
In turn, `Cn1cncc1C(OCc1ccc(C#N)cc1C#Cc1ccc(C#N)cc1)c1ccc(C#N)cc1` (centres undefined) showed an EC50 of 0.0116 µM. Compared with the last compound, the EC50 is about 11-fold lower.
On to `Cn1cncc1C(OCc1ccc(C#N)cc1C#CC1(O)CCCCC1)c1ccc(C#N)cc1` (centres undefined), for which the midpoint of the response, the EC50, lay at 0.00193 µM. This EC50 lies about 6-fold lower than the previous one.
Consider `Cn1cncc1C(OCc1ccc(C#N)cc1C#CC(C)(C)C)c1ccc(C#N)cc1` (centres undefined), for which the EC50 was 0.0769 µM.
On the same count and under the same terms, the value for `Cn1cncc1C(OCc1ccc(C#N)cc1C#CCCCCO)c1ccc(C#N)cc1` (centres undefined) was 0.0209 µM; that for `CCC/C=C/C=C/c1cc(C#N)ccc1COC(c1ccc(C#N)cc1)c1cncn1C` (centres undefined) was 0.0167 µM.
Same read-out and setting: the value for `Cn1cncc1C(OCc1ccc(C#N)cc1C#Cc1ccccc1)c1ccc(C#N)cc1` (centres undefined) was 0.0001 µM; that for `Cn1cncc1C(OCc1ccc(C#N)cc1C#Cc1cccc(O)c1)c1ccc(C#N)cc1` (centres undefined) was greater than 0.0001 µM.
Same read-out and setting: then `Cn1cncc1C(OCc1ccc(C#N)cc1/C=C/c1ccccn1)c1ccc(C#N)cc1` (centres undefined), with 0.0231 µM.
`CCCCCCC#Cc1cc(C#N)ccc1COC(c1ccc(C#N)cc1)c1cncn1C` (centres undefined): the EC50 was greater than 0.0001 µM.
In turn, `Cn1cncc1C(OCc1ccc(C#N)cc1C#Cc1ccccn1)c1ccc(C#N)cc1` (centres undefined) returned an EC50 greater than 0.0001 µM.
Still for that read-out and setting: then `Cn1cncc1C(OCc1ccc(C#N)cc1-c1ccc(C#N)cc1)c1ccc(C#N)cc1` (centres undefined), with less than 0.0001 µM.
On to `Cn1cncc1C(OCc1ccc(C#N)cc1-c1ccc(-c2ccccc2)cc1)c1ccc(C#N)cc1` (centres undefined), for which the EC50 was less than 0.0001 µM.

Another test concerns the target Protein farnesyl/geranylgeranyl transferase (Homo sapiens) (UniProt P49354+P49356+P53609). Put plainly: Selectivity ratio of IC50 Geranylgeranyl transferase to that of IC50 Farnesyltransferase. Type of test: protein-complex assay.
Settings: not given
Take `Cn1cncc1C(OCc1ccc(C#N)cc1C#Cc1ccc(-c2ccccc2)cc1)c1ccc(C#N)cc1` (centres undefined): the Selectivity was greater than 1000.
Regarding `Cn1cncc1C(OCc1ccc(C#N)cc1CCC(C)(C)C)c1ccc(C#N)cc1` (centres undefined), the Selectivity turned out to be 326.
On to `Cn1cncc1C(OCc1ccc(C#N)cc1/C=C/c1ccc([N+](=O)[O-])cc1)c1ccc(C#N)cc1` (centres undefined), for which the Selectivity was 180.
Consider `Cn1cncc1C(OCc1ccc(C#N)cc1C#Cc1ccc([N+](=O)[O-])cc1)c1ccc(C#N)cc1` (centres undefined), for which the Selectivity turned out to be 273.
Regarding `Cn1cncc1C(OCc1ccc(C#N)cc1C#CCCc1ccccc1)c1ccc(C#N)cc1` (centres undefined), the Selectivity was determined as 386.
On the same count and under the same terms, the value for `Cn1cncc1C(OCc1ccc(C#N)cc1C#Cc1ccc(C#N)cc1)c1ccc(C#N)cc1` (centres undefined) was 196; that for `Cn1cncc1C(OCc1ccc(C#N)cc1C#CC1(O)CCCCC1)c1ccc(C#N)cc1` (centres undefined) was 971; that for `Cn1cncc1C(OCc1ccc(C#N)cc1C#CC(C)(C)C)c1ccc(C#N)cc1` (centres undefined) was 790.
Consider `Cn1cncc1C(OCc1ccc(C#N)cc1C#CCCCCO)c1ccc(C#N)cc1` (centres undefined), for which the Selectivity is 941.
For the compound `CCC/C=C/C=C/c1cc(C#N)ccc1COC(c1ccc(C#N)cc1)c1cncn1C` (centres undefined), the Selectivity was 169.
Same read-out and setting: the value for `Cn1cncc1C(OCc1ccc(C#N)cc1C#Cc1ccccc1)c1ccc(C#N)cc1` (centres undefined) was 1900; that for `Cn1cncc1C(OCc1ccc(C#N)cc1C#Cc1cccc(O)c1)c1ccc(C#N)cc1` (centres undefined) was 1300.
Take `Cn1cncc1C(OCc1ccc(C#N)cc1/C=C/c1ccccn1)c1ccc(C#N)cc1` (centres undefined): the Selectivity was determined as 1120.
Take `CCCCCCC#Cc1cc(C#N)ccc1COC(c1ccc(C#N)cc1)c1cncn1C` (centres undefined): the Selectivity stood at 178.
As for `Cn1cncc1C(OCc1ccc(C#N)cc1C#Cc1ccccn1)c1ccc(C#N)cc1` (centres undefined), the Selectivity came to 5520.
Still for that read-out and setting: the value for `Cn1cncc1C(OCc1ccc(C#N)cc1-c1ccc(C#N)cc1)c1ccc(C#N)cc1` (centres undefined) was 6900.
With `Cn1cncc1C(OCc1ccc(C#N)cc1-c1ccc(-c2ccccc2)cc1)c1ccc(C#N)cc1` (centres undefined), the Selectivity turned out to be 136.

The next test has as its target Protein farnesyltransferase (Homo sapiens, UniProt P49354+P49356). Put plainly: In vitro inhibition of the human FTase-catalyzed incorporation of [3H]FPP into recombinant Ras CVIM. Format: protein-complex assay.
Settings: not given
`Cn1cncc1C(OCc1ccc(C#N)cc1C#Cc1ccc(-c2ccccc2)cc1)c1ccc(C#N)cc1` (centres undefined): the IC50 turned out to be 0.01 µM.
Still for that read-out and setting: the value for `Cn1cncc1C(OCc1ccc(C#N)cc1CCC(C)(C)C)c1ccc(C#N)cc1` (centres undefined) was 0.00095 µM; that for `Cn1cncc1C(OCc1ccc(C#N)cc1/C=C/c1ccc([N+](=O)[O-])cc1)c1ccc(C#N)cc1` (centres undefined) was 0.00061 µM; that for `Cn1cncc1C(OCc1ccc(C#N)cc1C#Cc1ccc([N+](=O)[O-])cc1)c1ccc(C#N)cc1` (centres undefined) was 0.00055 µM.
For `Cn1cncc1C(OCc1ccc(C#N)cc1C#CCCc1ccccc1)c1ccc(C#N)cc1` (centres undefined), the IC50 is 0.0014 µM.
Still for that read-out and setting: the value for `Cn1cncc1C(OCc1ccc(C#N)cc1C#Cc1ccc(C#N)cc1)c1ccc(C#N)cc1` (centres undefined) was 0.00063 µM; that for `Cn1cncc1C(OCc1ccc(C#N)cc1C#CC1(O)CCCCC1)c1ccc(C#N)cc1` (centres undefined) was 0.00087 µM.
The same measure, in the same setting: the value for `Cn1cncc1C(OCc1ccc(C#N)cc1C#CC(C)(C)C)c1ccc(C#N)cc1` (centres undefined) was 0.00062 µM.
Take `Cn1cncc1C(OCc1ccc(C#N)cc1C#CCCCCO)c1ccc(C#N)cc1` (centres undefined): the IC50 amounted to 0.0017 µM.
Same read-out and setting: the value for `CCC/C=C/C=C/c1cc(C#N)ccc1COC(c1ccc(C#N)cc1)c1cncn1C` (centres undefined) was 0.0013 µM; that for `Cn1cncc1C(OCc1ccc(C#N)cc1C#Cc1ccccc1)c1ccc(C#N)cc1` (centres undefined) was 0.00095 µM.
For `Cn1cncc1C(OCc1ccc(C#N)cc1C#Cc1cccc(O)c1)c1ccc(C#N)cc1` (centres undefined), the IC50 was found to be 0.001 µM.
The same measure, in the same setting: then `Cn1cncc1C(OCc1ccc(C#N)cc1/C=C/c1ccccn1)c1ccc(C#N)cc1` (centres undefined), with 0.0016 µM; and `CCCCCCC#Cc1cc(C#N)ccc1COC(c1ccc(C#N)cc1)c1cncn1C` (centres undefined), with 0.0009 µM; and `Cn1cncc1C(OCc1ccc(C#N)cc1C#Cc1ccccn1)c1ccc(C#N)cc1` (centres undefined), with 0.0029 µM.
As for `Cn1cncc1C(OCc1ccc(C#N)cc1-c1ccc(C#N)cc1)c1ccc(C#N)cc1` (centres undefined), the IC50 was 0.0013 µM.
Take `Cn1cncc1C(OCc1ccc(C#N)cc1-c1ccc(-c2ccccc2)cc1)c1ccc(C#N)cc1` (centres undefined): the IC50 was found to be 0.0011 µM.
